Measurements as given in publication PMC6501426 (Clinical Epigenetics, 2019).
Read-outs that look alike come from different tables or passages of the source.

Assays:
[1] = tested on: methylated CMV promoter-driven luciferase reporter in KG-1 cells; test: CMV-luc assay in KG-1 cells; assay type: cell-based, human; conditions: KG-1 CMV-luc
Method: The assay was carried out as described by Rilova et al.. The KG-1 cell line was stably transfected with the luciferase firefly (Luc^+ from pGL3 by Promega, Madison, WI, USA) reporter gene under the control of a methylated CMV promoter (from pEGFP-N1 by Clontech) and selected for the maintenance of the methylation of CMV and luciferase expression silencing (KG-1 CMV-luc). The stably integrated KG-1 CMV-luc cells are cultivated in RPMI-1640 medium (Lonza, Strasbourg, France), supplemented with 10% FCS (Lonza, Strasbourg, France) and 0.5 mg/mL of geneticin (Sigma-Aldrich, Saint-Quentin Fallavier, France), under 5% CO2, at 37 °C and seeded at 20,000 cells per well in 96-well plates. After 5 or 24 h of incubation in the presence of compounds or the solvent DMSO, the induction of the promoter is measured by quantification of luciferase with the Brite-lite assay system (PerkinElmer, Villebon-sur-Yvette, France) according to the manufacturer’s protocol. The luminescence is measured on an EnVision™ Multilabel Plate Reader (PerkinElmer, Villebon-sur-Yvette, France), and the data are expressed as fold induction compared to DMSO control. The mean of 2–4 experiments and its standard error are reported.
(§1) Afterwards, MC3353 was tested in KG-1 leukemia cells for its ability to reactivate gene expression in a stably integrated luciferase reporter construction under the control of a CMV promoter inhibited by DNA methylation (CMV-luc assay). After 5 or 24 h of incubation in the presence of drugs at the indicated concentrations, the luciferase signal was measured and normalized to the value of the non-treated cells (Table 2). Since the CMV-luc assay is highly compromised when the tested compounds induce cell death, the cytotoxicity of MC3353 against KG-1 cells at 5 and 24 h was determined in parallel. MC3353 was highly toxic for KG-1 cells after 24 h of treatment starting from a concentration of 1 μM (Additional file 1: Table S1 and indicated in stars in Table 2).

[2] = tested on: DNMT3A protein level in PC-3 cells; test: Western blot of DNMT3A protein in PC-3; assay type: cell-based, human; conditions: 24 h; 1 μM requested for the effect
Source text: Cells were lysed in Laemmli buffer; subsequently, the proteins were resolved by sodium dodecyl sulfate-polyacrylamide gel electrophoresis and transferred to a 0.45-μm nitrocellulose membrane (Bio-Rad Laboratories, Hercules, CA). The following primary antibodies were used for immunoblotting: α-E-cadherin (BD Transduction Laboratories, Franklin Lakes, NJ), α-MMP2 (Abcam), α-DNMT3a (Santa Cruz Biotechnologies, Dallas, TX), and α-GAPDH (Millipore Corp., Bedford, MA), used as a loading control. The immune complexes were detected with horseradish peroxidase-conjugated species-specific secondary antiserum (Bio-Rad Laboratories, Milan, Italy) then by enhanced chemiluminescence reaction (Bio-Rad Laboratories, Milan, Italy). Densitometric analysis of protein expression was performed by using the Fiji ImageJ image processing package.
GAPDH was used as a loading control. Blots are representative of two independent experiments

[3] = tested on: primary osteosarcoma cell lines; test: Growth inhibition in panel of primary osteosarcoma cell lines; assay type: cell-based; conditions: Homo sapiens; range over the osteosarcoma panel
Method: To perform osteosarcoma cell growth inhibition experiments, 2 × 10^5 cells/well were plated, and MC3353 (0.1–30 μM) or DAC (0.5 μM) was added after 24 h. Cells were exposed for up to 96 h before being counted by Trypan blue vital cell count (Sigma-Aldrich, Milan, Italy). In parallel, the cells were treated with DMSO-containing medium as a control. The highest final concentration of DMSO in the medium was < 0.005%, and DMSO had no effect on cell growth.
IC50 values of compounds against cellular viability were determined by using nonlinear regression fitting curves with GraphPad Prism 8 or CalcuSyn software The t test used for statistical analyses was performed with GraphPad Prism 8. All the tests were one-tailed, and a p value < 0.05 was considered statistically significant.

human DNMT1 = target: T1, human DNMT1 (Homo sapiens, UniProt P26358); test: DNMT1 assay (radiolabeled SAM, Flashplate); assay type: biochemical
T1 construct: His; made in house
Method: His-DNMT1 (182 kDa, human) was cloned, expressed, and purified as described by Lee et al.. The DNMT1 assay was performed according to Gros et al.. Briefly, the DNMT1 enzymatic assay is based on the use of radiolabeled SAM, and the methylation occurs in homogeneous phase in 384-well microplates. The reaction is performed with DNMT1 at the final concentration of 90 nM in a total volume of 10 μL including also the chemical compound to be tested at the desired concentration, 1.25 μM of SAM//[methyl-^3H] SAM (3TBq/mmol) mix in a ratio of 3:1 and 0.3 μM of biotinylated DNA duplex. DNMT1, as “maintenance” methyltransferase, requires hemimethylated DNA for the reaction. After 2 h incubation at 37 °C, 8 μL of the reaction’s solution is transferred into a streptavidin 96-well scintillant coated Flashplate^TM containing 190 μL of […] in 50 mM Tris-HCl (pH 7.4). The Flashplate^TM is then agitated at room temperature for 1 h and washed. The plate is read with TopCount (PerkinElmer, Villebon-sur-Yvette, France). The greater the DNMT1 inhibition, the lower will be the scintillation signal correlated to the incorporation of the tritiated methyl groups. In this assay, the negative and positive controls were defined as wells without enzyme and wells without any compound but just DMSO, respectively.

KG-1 cells = test: Antiproliferative activity in KG-1 cells (Table S1); assay type: cell-based; conditions: Homo sapiens, read-out: % inhibition of proliferation, KG-1 cells
Method: To determine the antiproliferative activity of MC3353 in KG-1 cells, the cells were seeded at day 0 in a 96-well plate and treated with test compound solutions at a dose range spanning from 3.2 × 10^−9 to 1 × 10^−5 M at days 1, 2, and 3. On day 4, cell viability was assessed using the ATPLite kit (PerkinElmer, Villebon-sur-Yvette, France).
as §1

T1 sequence (P26358 whole entry): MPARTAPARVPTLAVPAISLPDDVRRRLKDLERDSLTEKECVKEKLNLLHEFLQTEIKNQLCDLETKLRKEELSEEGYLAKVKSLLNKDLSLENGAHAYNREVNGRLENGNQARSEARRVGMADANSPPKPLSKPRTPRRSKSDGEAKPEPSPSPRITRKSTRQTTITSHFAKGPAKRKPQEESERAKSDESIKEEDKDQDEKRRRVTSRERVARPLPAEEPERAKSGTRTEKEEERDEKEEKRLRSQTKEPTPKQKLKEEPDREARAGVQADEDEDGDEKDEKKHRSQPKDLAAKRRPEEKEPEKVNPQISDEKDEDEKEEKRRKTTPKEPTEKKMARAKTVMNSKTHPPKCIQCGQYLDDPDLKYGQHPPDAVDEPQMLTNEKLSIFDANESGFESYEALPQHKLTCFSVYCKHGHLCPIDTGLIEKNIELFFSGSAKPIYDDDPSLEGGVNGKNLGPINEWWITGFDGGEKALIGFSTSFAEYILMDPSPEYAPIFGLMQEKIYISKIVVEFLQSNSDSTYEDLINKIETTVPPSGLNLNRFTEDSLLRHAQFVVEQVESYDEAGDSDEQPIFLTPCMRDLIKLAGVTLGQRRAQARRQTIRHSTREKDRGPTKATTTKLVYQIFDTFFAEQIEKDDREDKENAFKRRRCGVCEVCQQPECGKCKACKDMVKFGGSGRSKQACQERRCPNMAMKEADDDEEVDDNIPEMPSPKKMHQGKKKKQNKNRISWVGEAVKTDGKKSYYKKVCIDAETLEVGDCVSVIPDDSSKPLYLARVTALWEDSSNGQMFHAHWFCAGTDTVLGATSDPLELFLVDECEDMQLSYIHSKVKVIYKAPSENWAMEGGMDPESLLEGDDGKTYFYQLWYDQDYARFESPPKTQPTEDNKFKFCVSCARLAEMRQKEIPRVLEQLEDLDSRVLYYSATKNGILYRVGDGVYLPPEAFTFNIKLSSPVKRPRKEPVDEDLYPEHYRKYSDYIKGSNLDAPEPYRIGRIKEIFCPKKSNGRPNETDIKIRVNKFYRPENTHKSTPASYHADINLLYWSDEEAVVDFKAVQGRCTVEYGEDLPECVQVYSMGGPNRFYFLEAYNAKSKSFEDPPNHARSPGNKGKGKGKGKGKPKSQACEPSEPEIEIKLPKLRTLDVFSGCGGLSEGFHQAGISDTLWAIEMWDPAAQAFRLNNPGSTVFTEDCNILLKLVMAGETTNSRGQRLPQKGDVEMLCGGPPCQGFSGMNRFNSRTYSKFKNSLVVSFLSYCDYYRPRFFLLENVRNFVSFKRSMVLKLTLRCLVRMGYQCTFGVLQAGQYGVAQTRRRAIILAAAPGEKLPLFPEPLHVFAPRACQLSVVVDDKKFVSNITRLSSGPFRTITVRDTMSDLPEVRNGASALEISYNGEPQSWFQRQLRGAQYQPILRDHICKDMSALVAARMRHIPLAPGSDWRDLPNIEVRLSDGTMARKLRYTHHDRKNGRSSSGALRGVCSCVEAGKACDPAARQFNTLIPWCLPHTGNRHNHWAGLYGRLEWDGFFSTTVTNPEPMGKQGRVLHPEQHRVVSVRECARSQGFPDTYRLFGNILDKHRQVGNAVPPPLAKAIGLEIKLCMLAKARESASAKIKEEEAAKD

O=C(Nc1ccc(NC(=O)c2ccc(Nc3ccnc4ccccc34)cc2)cc1)OCc1ccccc1 [MC3353, Benzyl (4-(4-(quinolin-4-ylamino)benzamido)phenyl)carbamate]
Luciferase expression (fold ± SD) ([1]; 0.1 μM, 5 h): 1.0 ± 0.05 fold
Luciferase expression (fold ± SD) ([1]; 0.1 μM, 24 h): 1.1 ± 0.1 fold
Luciferase expression (fold ± SD) ([1]; 1 μM, 5 h): 5.8 ± 0.9 fold
Luciferase expression (fold ± SD) ([1]; 1 μM, 24 h): 4.4 ± 3.5 fold
Luciferase expression (fold ± SD) ([1]; 5 μM, 5 h): 6.7 ± 0.8 fold
DNMT3A protein expression level (western blot), PC-3 [2]: DNMT3A protein downregulation was observed
IC50 [3]: 1.1 to 2.4 µM
EC50 (human DNMT1; radioactivity assay, at least two independent experiments, read-out: EC50 ± SD, hDNMT1): 67 ± 4 µM
fold less effective than SGI-1027 against hDNMT1 (human DNMT1; ratio of EC50 values): 5.6 fold
fold more potent than RG-108 against hDNMT1 (human DNMT1; ratio of EC50 values): 6 fold
inhibition at 0.1 µM (KG-1 cells; 5h): 5.5%
inhibition at 0.1 µM (KG-1 cells; 24h): 2.9%
inhibition at 1 µM (KG-1 cells; 5h): 17.7%
inhibition at 1 µM (KG-1 cells; 24h): 98.7%
inhibition at 5 µM (KG-1 cells; 5h): 81.2%
inhibition at 5 µM (KG-1 cells; 24h): 100%
inhibition at 10 µM (KG-1 cells; 5h): 96.8%
inhibition at 10 µM (KG-1 cells; 24h): 100%
